The values below come from patent US20130287688A1, “NOVEL COMPOSITIONS AND USES OF ANTI-HYPERTENSION AGENTS FOR CANCER THERAPY” (XTUIT PHARMACEUTICALS, INC., priority 2010, published 2013).

The structures appear in SMILES notation.

Data set [1] has as its system FVB MMTV PyVT spontaneous mammary carcinoma. Kind of data set: Collagen I immunostaining of tumor sections. Type of data set: in vivo, mice. The settings on record: 20 mg/kg/day, two weeks (FIG. 5B). The method, then: Human soft tissue sarcoma (HSTS26T) and human melanoma (Mu89) tumors were grown subcutaneously in the legs and dorsal skin fold chamber of severe combined immunodeficient (SCID) mice (Leunig M, et al. (1992) Cancer Res 52:6553-6560). Human pancreatic adenocarcinoma cells (L3.6PL) were grown orthotopically in the pancreas of SCID mice. L3.6PL tumors were induced with a sub-capsular injection of one million cells in the tail of the pancreas. Tumor sizes were monitored in spontaneous FVB/N-Tg (MMTV-PyVT) 634MU1/J mice and tumors selected for treatment when they reached a size of 4 to 6 mm in diameter (Guy C T et al. (1992) Mol Cell Biol 12:954-961).
Cozaar (losartan potassium) tablets were ground using a mortar and pestle. The powder was then dissolved in water to obtain a concentration of 2.5 mg/ml. […]
Frozen sections were cut into 10 μm sections for immunohistochemistry and imaging. Collagen I was detected using the LF-67 antibody (1:100 dilution) with a previously described protocol (Znati C A, et al. (2003) Clin Cancer Res 9:5508-5513). TSP-1 was detected with a goat anti-human antibody (1:50 dilution), which cross-reacts with mice (sc-12312, Santa Cruz Biotechnology Inc., Santa Cruz, Calif.). […] The collagen and TSP-1 content was determined by measuring the number of pixels above a threshold value that was set based on the average intensity value of pixels from all slides under analysis. […]

A further data set deals with HSTS26T tumors. Kind of data set: Intratumoral spread of i.t. injected oncolytic HSV (GFP). Format: in vivo, mice. The settings on record: 24 hrs after i.t. injection of HSV expressing GFP. An excerpt:
(§1) Based on the previous studies on the tumor interstitial matrix (Pluen A, et al. (2001) Proc Natl Acad Sci USA 98:4628-4633 and Brown E, et al. (2003) Nat Med 9:796-800), the inventors then sought to determine if a decrease in collagen content by Losartan can improve the intratumoral distribution of nanoparticles. The inventors therefore measured the intratumoral distribution of fluorescent polystyrene nanoparticles (100 nm diameter) in three different tumor types—HSTS26T, Mu89, and L3.6 pl—after an i.t. or i.v. injection. In mice injected i.t. with nanoparticles, losartan improved nanoparticle accumulation and penetration in the tumor center (FIG. 8A; HSTS26T p<0.001, Mu89 p<0.001). Conversely, there was little or no nanoparticle accumulation in the center of control tumors. Most of the injected nanoparticles in control tumors were found in the tumor margin and around the needle insertion point (FIG. 8A). The inventors also determined the effects of losartan on the intratumoral distribution of oncolytic HSV.
(§2) Nanoparticles and oncolytic HSV were infused with a syringe pump (Harvard Apparatus Standard Pump 22, Holliston, Mass.) at a flow rate of 4 μl/min. The inventors injected 10 μl of HSV (2.5×10^5 t.u.) expressing the green fluorescent protein (GFP), or 10 μl of fluorescent nanoparticles (diameter of […]; concentration of 1×10^13 nanoparticles/ml). […]

In a further data set the test system is Mu89 tumors. Described as above. The settings on record: 24 hrs after i.t. injection of HSV expressing GFP. Type of data set: in vivo, mice.
Description: as §1, §2

Data set [2] relates to L3.6PL orthotopic pancreatic tumors. Kind of data set: DOXIL treatment and tumor growth delay. Format: in vivo, SCID mice. An excerpt: One week after the DOXIL injection, the tumors were resected and measured.
Another data set has as its system AK4.4 tumors. Kind of data set: Solid stress (tumor opening technique). More on the design: species or system mice. The settings on record: mouse, in vivo.
The next data set has as its system tumors. The data set is described as follows: Solid stress after a panel of ARBs. The settings on record: 40 mg/kg losartan, 3.2 mg/kg candesartan, 32 mg/kg valsartan. Format: in vivo. The method, then:
Solid stress levels in tumors after angiotensin inhibition using the ARBs losartan, candesartan, and valsartan are shown. Doses were chosen based on their relative doses in patients for hypertension indications (40 mg/kg losartan, 3.2 mg/kg candesartan, 32 mg/kg valsartan). […] Animal numbers n=6-7. Statistical tests were corrected for multiple comparisons using the Holm-Bonferroni method.
The mechanism responsible for the increase in tumor vessel perfusion by losartan was investigated. Desmoplasia, high stromal cell and matrix density, is a major contributor to the solid stress accumulation that compresses vessels (Stylianopoulos T, et al., Growth-induced mechanical stress in murine and human tumors: causes, consequences and remedies. under review. 2012). Since angiotensin inhibitors reduce matrix production in tumors (Diop-Frimpong B, et al., Proc Natl Acad Sci USA. 2011; 108(7): 2909-14), it was hypothesized that they decompress vessels and increase perfusion by decreasing solid stress. Collagen levels were used as a metric of matrix production as described in Diop-Frimpong et al., Proc Nall Acad Sci USA. […] Moreover, losartan decreased collagen I concentration, measured based on staining intensity, in E0771 and AK4.4 tumors (FIGS. 24B-24C). Of note, dense collagen seemed to colocalize with low-perfusion areas (FIG. 24C). Next, solid stress in these tumors was measured using recently established technique described in Stylianopoulos T, et al., Growth-induced mechanical stress in murine and human tumors: causes, consequences and remedies. under review. 2012. […]
Solid stress: Solid stress was measured using the tumor opening technique as described previously (Stylianopoulos T, et al., Growth-induced mechanical stress in murine and human tumors: causes, consequences and remedies. under review. 2012). […] Subsequently, each tumor was excised, washed with Hanks' Balanced Salt Solution (HBSS) and its three dimensions were measured. […] Afterwards, the opening resulting from the cut was measured at the middle of the cut at the surface of the tumor. […]

Take `CCCCc1nc(Cl)c(CO)n1Cc1ccc(-c2ccccc2-c2nn[nH]n2)cc1` [losartan]: the “reduction in collagen I immunostaining” value in data set [1] amounted to 47%. Further, the virus spread entry with HSTS26T tumors and with Mu89 tumors was “significantly increased” throughout. Besides, the mean tumor weight result in data set [2] (agent alone (losartan 20 mg/kg/day or DOXIL 4 mg/kg i.v.), after 7 days) is listed as “did not affect”. Besides, in data set [2] (losartan 20 mg/kg/day combined with DOXIL 4 mg/kg i.v.), the “tumor size vs DOXIL alone” value is “significantly smaller”. In data set [2] (losartan alone), the “growth of pancreatic tumors or weight of treated mice” value is reported as “did not affect”. Also, the “reduction of tumor sizes compared to DOXIL treatment alone” value in data set [2] (losartan combined with DOXIL) was found to be 50%. For the same molecule, the solid stress entry is listed as “reduces solid stress” with AK4.4 tumors and “reduce solid stress to a similar degree” with tumors.
